SMILES strings stand for the structures.

Data on 29 molecules can be found in patent US11446287B2, “Compounds and methods for EP300 or CBP modulation and indications therefor” (Opna Immuno-Oncology SA, priority 2019, dated 2022).

This assay has as its target T1, Recombinant human BRD4 containing dual bromodomains (BRD4-BD12 (1-477)) (Homo sapiens, UniProt O60885).
T1 construct: Recombinant human BRD4 containing dual bromodomains (BRD4-BD12 (1-477)); made in house; host or cells: E. coli BL21-CodonPlus (DE3), modified pET vector
Briefly: BRD4 Alphascreen binding assay. Summed up: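 AlphaScreen proximity between Ni-chelate-bound BRD4-BD12 (1-477) and streptavidin-captured H4 K5/K8/K12/K16-acetyl peptide measured after 1 h room-temperature compound incubation and 30 min with 7.5 μg/ml beads. Buffer: 50 mM HEPES pH 7.5, 50 mM NaCl, 0.01% BSA, 0.01% Triton X-100; data plate-normalized and four-parameter fit for IC50.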
On the technique in general: Bead proximity is the source of the signal in Alpha formats.

With `CCOC(=O)c1cc(-c2cn(-c3ccc(F)cc3F)c3ncc(-c4c(C)noc4C)cc23)c(OCC)cc1O` [P-0248, ethyl 5-(1-(2,4-difluorophenyl)-5-(3,5-dimethylisoxazol-4-yl)-1H-pyrrolo[2,3-b]pyridin-3-yl)-4-ethoxy-2-hydroxybenzoate], the IC50 (as a rule, the point on the concentration scale where inhibition reaches its midpoint) fell in the range of 8 to 1000 µM.

As to `CCOc1cc(O)c(C(=O)O)cc1-c1cn(-c2ccc(F)cc2F)c2ncc(-c3c(C)noc3C)cc12` [P-0249, 5-(1-(2,4-difluorophenyl)-5-(3,5-dimethylisoxazol-4-yl)-1H-pyrrolo[2,3-b]pyridin-3-yl)-4-ethoxy-2-hydroxybenzoic acid], the IC50 fell in the range of 8 to 1000 µM.

As to `CCOc1cc(OC)c(C(=O)O)cc1-c1cn(-c2ccc(F)cc2F)c2ncc(-c3c(C)noc3C)cc12` [P-0250, 5-(1-(2,4-difluorophenyl)-5-(3,5-dimethylisoxazol-4-yl)-1H-pyrrolo[2,3-b]pyridin-3-yl)-4-ethoxy-2-methoxybenzoic acid], the half-inhibitory concentration (IC50) lay in the range of 8 to 1000 µM.

As for `Cc1noc(C)c1-c1cnc2c(c1)c(-c1ccc(C(=O)O)cc1OC(F)(F)F)cn2-c1cnccc1F` [P-0251, 4-(5-(3,5-dimethylisoxazol-4-yl)-1-(4-fluoropyridin-3-yl)-1H-pyrrolo[2,3-b]pyridin-3-yl)-3-(trifluoromethoxy)benzoic acid], the IC50 was 8 to 1000 µM.

As for `Cc1noc(C)c1-c1cnc2c(c1)c(-c1ccc(C(=O)O)cc1OC(F)(F)F)cn2-c1cnccc1O` [P-0252, 4-(5-(3,5-dimethylisoxazol-4-yl)-1-(4-hydroxypyridin-3-yl)-1H-pyrrolo[2,3-b]pyridin-3-yl)-3-(trifluoromethoxy)benzoic acid], the concentration for half-maximal inhibition (IC50) lay in the range of 8 to 1000 µM.

In the case of `Cc1noc(C)c1-c1cnc2c(c1)c(-c1ccc(C(=O)O)cc1OC(F)(F)F)cn2-c1ccncc1Cl` [P-0253, 4-(1-(3-chloropyridin-4-yl)-5-(3,5-dimethylisoxazol-4-yl)-1H-pyrrolo[2,3-b]pyridin-3-yl)-3-(trifluoromethoxy)benzoic acid], the concentration for half-maximal inhibition (IC50) lay within 8 to 1000 µM.

Turning to `Cc1noc(C)c1-c1cnc2c(c1)c(-c1ccc(C(=O)O)cc1OC(F)(F)F)cn2-c1c(F)cccc1C#N` [P-0254, 4-(1-(2-cyano-6-fluorophenyl)-5-(3,5-dimethylisoxazol-4-yl)-1H-pyrrolo[2,3-b]pyridin-3-yl)-3-(trifluoromethoxy)benzoic acid], the IC50 was 1 to 8 µM.

`COc1cc(C(=O)O)cc(C)c1-c1cn(-c2ccccc2)c2ncc(-c3c(C)noc3C)cc12` [P-0255, 4-(5-(3,5-dimethylisoxazol-4-yl)-1-phenyl-1H-pyrrolo[2,3-b]pyridin-3-yl)-3-methoxy-5-methylbenzoic acid]: the concentration for half-maximal inhibition (IC50) lay in the range of 1 to 8 µM.

Regarding `Cc1noc(C)c1-c1cnc2c(-c3ccc(C(=O)O)cc3C#N)c(C(F)(F)F)n([C@@H](C)c3ccccn3)c2c1` [P-0256, (S)-3-cyano-4-(6-(3,5-dimethylisoxazol-4-yl)-1-(1-(pyridin-2-yl)ethyl)-2-(trifluoromethyl)-1H-pyrrolo[3,2-b]pyridin-3-yl)benzoic acid], the IC50 is 8 to 1000 µM.

For the molecule `Cc1noc(C)c1-c1cnc2c(-c3cc(C(=O)O)ccc3Cl)c(C(F)(F)F)n([C@@H](C)c3ccccn3)c2c1` [P-0257, (S)-4-chloro-3-(6-(3,5-dimethylisoxazol-4-yl)-1-(1-(pyridin-2-yl)ethyl)-2-(trifluoromethyl)-1H-pyrrolo[3,2-b]pyridin-3-yl)benzoic acid], the IC50 was in the range of 8 to 1000 µM.

On to `CCOc1cc(C(=O)O)cc(OCC)c1-n1cc(-c2cnn(CS(C)(=O)=O)c2)c2ncc(-c3c(C)noc3C)cc21` [P-0258, 4-(6-(3,5-dimethylisoxazol-4-yl)-3-(1-((methylsulfonyl)methyl)-1H-pyrazol-4-yl)-1H-pyrrolo[3,2-b]pyridin-1-yl)-3,5-diethoxybenzoic acid], for which the IC50 lay within 1 to 8 µM.

Take `CCOc1cc(C(=O)O)cc(OCC)c1-n1cc(-c2cn(C(C)C)nc2C)c2ncc(-c3c(C)noc3C)cc21` [P-0259, 4-(6-(3,5-dimethylisoxazol-4-yl)-3-(1-isopropyl-3-methyl-1H-pyrazol-4-yl)-1H-pyrrolo[3,2-b]pyridin-1-yl)-3,5-diethoxybenzoic acid]: the 50% inhibitory concentration (IC50) was 1 to 8 µM.

Turning to `CCOc1cc(C(=O)O)cc(OCC)c1-n1cc(-c2cnn(CC(C)(C)O)c2)c2ncc(-c3c(C)noc3C)cc21` [P-0260, 4-(6-(3,5-dimethylisoxazol-4-yl)-3-(1-(2-hydroxy-2-methylpropyl)-1H-pyrazol-4-yl)-1H-pyrrolo[3,2-b]pyridin-1-yl)-3,5-diethoxybenzoic acid], the IC50 was in the range of 1 to 8 µM.

In the case of `CCOc1cc(C(=O)O)cc(OCC)c1-n1cc(-c2cnn(C(F)F)c2)c2ncc(-c3c(C)noc3C)cc21` [P-0261, 4-(3-(1-(difluoromethyl)-1H-pyrazol-4-yl)-6-(3,5-dimethylisoxazol-4-yl)-1H-pyrrolo[3,2-b]pyridin-1-yl)-3,5-diethoxybenzoic acid], the IC50 lay in the range of 1 to 8 µM.

As to `CCOc1cc(C(=O)O)cc(OCC)c1-n1cc(-c2cnn(CCN(C)C)c2)c2ncc(-c3c(C)noc3C)cc21` [P-0262, 4-(3-(1-(2-(dimethylamino)ethyl)-1H-pyrazol-4-yl)-6-(3,5-dimethylisoxazol-4-yl)-1H-pyrrolo[3,2-b]pyridin-1-yl)-3,5-diethoxybenzoic acid], the IC50 is 1 to 8 µM.

Turning to `CCOc1cc(C(=O)O)cc(OCC)c1-n1cc(-c2cn(C)nc2C)c2ncc(-c3c(C)noc3C)cc21` [P-0263, 4-(3-(1,3-dimethyl-1H-pyrazol-4-yl)-6-(3,5-dimethylisoxazol-4-yl)-1H-pyrrolo[3,2-b]pyridin-1-yl)-3,5-diethoxybenzoic acid], the half-inhibitory concentration (IC50) lay in the range of 1 to 8 µM.

With `CCOc1cc(C(=O)O)cc(OCC)c1-n1cc(-c2cnn(CC3CC3)c2)c2ncc(-c3c(C)noc3C)cc21` [P-0264, 4-(3-(1-(cyclopropylmethyl)-1H-pyrazol-4-yl)-6-(3,5-dimethylisoxazol-4-yl)-1H-pyrrolo[3,2-b]pyridin-1-yl)-3,5-diethoxybenzoic acid], the IC50 was in the range of 1 to 8 µM.

`CCOc1cc(C(=O)O)cc(OCC)c1-n1cc(-c2cnn(C3CC3)c2)c2ncc(-c3c(C)noc3C)cc21` [P-0265, 4-(3-(1-cyclopropyl-1H-pyrazol-4-yl)-6-(3,5-dimethylisoxazol-4-yl)-1H-pyrrolo[3,2-b]pyridin-1-yl)-3,5-diethoxybenzoic acid]: the IC50 lay in the range of 1 to 8 µM.

`CCOc1cc(C(=O)O)cc(OCC)c1-n1cc(-c2cnn(CCC#N)c2)c2ncc(-c3c(C)noc3C)cc21` [P-0266, 4-(3-(1-(2-cyanoethyl)-1H-pyrazol-4-yl)-6-(3,5-dimethylisoxazol-4-yl)-1H-pyrrolo[3,2-b]pyridin-1-yl)-3,5-diethoxybenzoic acid]: the IC50 fell in the range of 1 to 8 µM.

Take `CCOc1cc(C(=O)O)cc(OCC)c1-n1cc(-c2cnn(CC(=O)N(C)C)c2)c2ncc(-c3c(C)noc3C)cc21` [P-0267, 4-(3-(1-(2-(dimethylamino)-2-oxoethyl)-1H-pyrazol-4-yl)-6-(3,5-dimethylisoxazol-4-yl)-1H-pyrrolo[3,2-b]pyridin-1-yl)-3,5-diethoxybenzoic acid]: the IC50 lay in the range of 1 to 8 µM.

Turning to `Cc1noc(C)c1-c1cnc2c(c1)c(-c1cc(C(=O)O)ccc1OC(F)(F)F)cn2-c1ccc(F)cc1F` [P-0268, 3-(1-(2,4-difluorophenyl)-5-(3,5-dimethylisoxazol-4-yl)-1H-pyrrolo[2,3-b]pyridin-3-yl)-4-(trifluoromethoxy)benzoic acid], the IC50 was in the range of 1 to 8 µM.

As for `Cc1noc(C)c1-c1cnc2c(-c3ccc(F)cc3F)cn(-c3c(OC(C)C)cc(C(=O)O)cc3OC(C)C)c2c1` [P-0269, 4-(3-(2,4-difluorophenyl)-6-(3,5-dimethylisoxazol-4-yl)-1H-pyrrolo[3,2-b]pyridin-1-yl)-3,5-diisopropoxybenzoic acid], the IC50 is 1 to 8 µM.

Turning to `CCOc1cc(C(=O)O)cc(OCC)c1-n1cc(CC2CCC2)c2ncc(-n3c(C)nnc3C)cc21` [P-0270, 4-(3-(cyclobutylmethyl)-6-(3,5-dimethyl-4H-1,2,4-triazol-4-yl)-1H-pyrrolo[3,2-b]pyridin-1-yl)-3,5-diethoxybenzoic acid], the concentration for half-maximal inhibition (IC50) was in the range of 8 to 1000 µM.

In the case of `CCOc1cc(C(=O)O)cc(OCC)c1-n1cc(C2CCC(F)(F)CC2)c2ncc(-c3c(C)noc3C)cc21` [P-0271, 4-(3-(4,4-difluorocyclohexyl)-6-(3,5-dimethylisoxazol-4-yl)-1H-pyrrolo[3,2-b]pyridin-1-yl)-3,5-diethoxybenzoic acid], the IC50 was 8 to 1000 µM.

Regarding `Cc1noc(C)c1-c1cnc2c(c1)c(-c1cnn(CC(=O)O)c1)cn2-c1ncccc1C#CC1CC1` [P-0272, 2-(4-(1-(3-(cyclopropylethynyl)pyridin-2-yl)-5-(3,5-dimethylisoxazol-4-yl)-1H-pyrrolo[2,3-b]pyridin-3-yl)-1H-pyrazol-1-yl)acetic acid], the IC50 fell in the range of 8 to 1000 µM.

On to `Cc1noc(C)c1-c1cnc2c(c1)c(-c1ccc(C(=O)O)cc1OC(F)F)cn2-c1ccccc1` [P-0273, 3-(difluoromethoxy)-4-(5-(3,5-dimethylisoxazol-4-yl)-1-phenyl-1H-pyrrolo[2,3-b]pyridin-3-yl)benzoic acid], for which the IC50 was in the range of 1 to 8 µM.

Turning to `Cc1noc(C)c1-c1cnc2c(-c3ccccc3)cn(-c3cc(C(=O)O)ccc3OC(F)(F)F)c2c1` [P-0274, 3-(6-(3,5-dimethylisoxazol-4-yl)-3-phenyl-1H-pyrrolo[3,2-b]pyridin-1-yl)-4-(trifluoromethoxy)benzoic acid], the IC50 was 1 to 8 µM.

With `Cc1noc(C)c1-c1cnc2c(c1)c(-c1ccc(C(=O)O)cc1OC(C)C)cn2-c1ccccc1` [P-0275, 4-(5-(3,5-dimethylisoxazol-4-yl)-1-phenyl-1H-pyrrolo[2,3-b]pyridin-3-yl)-3-isopropoxybenzoic acid], the IC50 was in the range of 1 to 8 µM.

Turning to `Cc1noc(C)c1-c1cnc2c(c1)c(-c1ccc(C(=O)O)cc1OC1CCC1)cn2-c1ccccc1` [P-0276, 3-cyclobutoxy-4-(5-(3,5-dimethylisoxazol-4-yl)-1-phenyl-1H-pyrrolo[2,3-b]pyridin-3-yl)benzoic acid], the IC50 fell in the range of 1 to 8 µM.
